From the kinase profiling compilation of Christmann-Franck et al. (2016)

Legend:
Assay in all cases: KINOMEscan competition binding
Settings in all cases: compound 10.0 µM
[1] = target: BMPR1B (human) (UniProt O00238)
[2] = target: EPHA5 (human) (UniProt P54756)
[3] = target: CAMK2G (human) (UniProt Q13555)
[4] = target: PRKAA2 (human) (UniProt P54646)
[5] = target: MAPK13 (human) (UniProt O15264)
[6] = target: MAPK10 (human) (UniProt P53779)
[7] = target: AAK1 (human) (UniProt Q2M2I8)
[8] = target: DAPK1 (human) (UniProt P53355)
[9] = target: CDK19 (human) (UniProt Q9BWU1)
[10] = target: SRC (human) (UniProt P12931)
[11] = target: EIF2AK2 (human) (UniProt P19525)
[12] = target: STK3 (human) (UniProt Q13188)
[13] = target: EPHA1 (human) (UniProt P21709)
[14] = target: TEC (human) (UniProt P42680)
[15] = target: ITK (human) (UniProt Q08881)
[16] = tested on: ABL1 (human), P00519 [M351T]
[17] = target: SIK1 (human) (UniProt P57059)
[18] = target: MERTK (human) (UniProt Q12866)
[19] = target: BMPR2 (human) (UniProt Q13873)
[20] = target: DCLK3 (human) (UniProt Q9C098)
[21] = target: HCK (human) (UniProt P08631)
[22] = target: ADCK4 (human) (UniProt Q96D53)
[23] = target: CSNK1D (human) (UniProt P48730)
[24] = target: STK32C (human) (UniProt Q86UX6)
[25] = target: AKT3 (human) (UniProt Q9Y243)
[26] = target: MINK1 (human) (UniProt Q8N4C8)
[27] = target: CDK11B (human) (UniProt P21127)
[28] = target: CHEK1 (human) (UniProt O14757)
[29] = target: NEK1 (human) (UniProt Q96PY6)
[30] = target: MUSK (human) (UniProt O15146)
[31] = target: MAP2K1 (human) (UniProt Q02750)
[32] = target: PRKD3 (human) (UniProt O94806)
[33] = target: MAP2K3 (human) (UniProt P46734)
[34] = target: FLT4 (human) (UniProt P35916)
[35] = target: PHKG2 (human) (UniProt P15735)
[36] = target: ACVR1B (human) (UniProt P36896)
[37] = target: FLT3 (human) (UniProt P36888)
[38] = target: RIPK1 (human) (UniProt Q13546)
[39] = target: EPHA2 (human) (UniProt P29317)
[40] = target: YES1 (human) (UniProt P07947)

Sequence of BMPR2 (human) (Q13873 whole entry, looked up): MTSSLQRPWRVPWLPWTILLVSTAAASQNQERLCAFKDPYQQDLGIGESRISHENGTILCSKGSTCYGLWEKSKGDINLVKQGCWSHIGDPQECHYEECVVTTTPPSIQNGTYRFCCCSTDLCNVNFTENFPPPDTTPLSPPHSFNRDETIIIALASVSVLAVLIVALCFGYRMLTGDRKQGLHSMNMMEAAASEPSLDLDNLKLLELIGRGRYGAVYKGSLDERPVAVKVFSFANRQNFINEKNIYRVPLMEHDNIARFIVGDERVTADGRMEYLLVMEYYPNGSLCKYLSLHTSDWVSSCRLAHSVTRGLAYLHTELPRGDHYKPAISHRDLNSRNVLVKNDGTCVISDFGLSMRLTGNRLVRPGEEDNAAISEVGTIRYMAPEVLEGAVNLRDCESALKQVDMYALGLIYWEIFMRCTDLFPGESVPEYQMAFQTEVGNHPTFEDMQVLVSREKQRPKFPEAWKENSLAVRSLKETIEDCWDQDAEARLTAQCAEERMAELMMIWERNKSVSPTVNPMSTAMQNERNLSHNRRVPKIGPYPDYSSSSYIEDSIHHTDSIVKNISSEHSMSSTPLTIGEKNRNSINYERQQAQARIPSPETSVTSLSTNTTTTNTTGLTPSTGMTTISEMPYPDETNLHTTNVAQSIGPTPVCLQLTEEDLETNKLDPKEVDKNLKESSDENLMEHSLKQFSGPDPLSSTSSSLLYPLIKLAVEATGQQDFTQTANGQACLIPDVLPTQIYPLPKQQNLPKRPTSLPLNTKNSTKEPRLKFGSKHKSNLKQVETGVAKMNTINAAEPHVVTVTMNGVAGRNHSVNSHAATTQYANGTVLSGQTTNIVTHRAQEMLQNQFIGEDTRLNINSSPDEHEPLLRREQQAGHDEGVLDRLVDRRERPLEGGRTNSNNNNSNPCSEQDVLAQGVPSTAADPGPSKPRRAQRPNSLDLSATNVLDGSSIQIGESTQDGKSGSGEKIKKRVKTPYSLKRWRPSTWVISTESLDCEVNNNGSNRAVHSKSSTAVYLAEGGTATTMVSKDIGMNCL
Sequence of PRKAA2 (human) (P54646 whole entry, looked up): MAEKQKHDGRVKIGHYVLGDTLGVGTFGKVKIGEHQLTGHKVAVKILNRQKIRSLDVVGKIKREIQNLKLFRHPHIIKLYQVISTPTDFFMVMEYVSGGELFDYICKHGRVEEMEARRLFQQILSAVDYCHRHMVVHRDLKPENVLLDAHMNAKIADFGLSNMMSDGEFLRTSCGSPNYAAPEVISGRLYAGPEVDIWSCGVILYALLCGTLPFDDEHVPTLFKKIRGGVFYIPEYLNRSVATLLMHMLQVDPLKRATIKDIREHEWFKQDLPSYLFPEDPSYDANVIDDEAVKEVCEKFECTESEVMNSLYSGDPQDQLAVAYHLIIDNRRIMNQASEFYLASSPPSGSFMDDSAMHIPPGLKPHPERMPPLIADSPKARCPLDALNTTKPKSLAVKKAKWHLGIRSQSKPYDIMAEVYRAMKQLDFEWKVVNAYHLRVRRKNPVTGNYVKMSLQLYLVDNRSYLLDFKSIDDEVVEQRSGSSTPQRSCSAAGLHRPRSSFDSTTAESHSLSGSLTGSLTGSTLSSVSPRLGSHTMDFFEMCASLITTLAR
Sequence of FLT4 (human) (P35916 whole entry, looked up): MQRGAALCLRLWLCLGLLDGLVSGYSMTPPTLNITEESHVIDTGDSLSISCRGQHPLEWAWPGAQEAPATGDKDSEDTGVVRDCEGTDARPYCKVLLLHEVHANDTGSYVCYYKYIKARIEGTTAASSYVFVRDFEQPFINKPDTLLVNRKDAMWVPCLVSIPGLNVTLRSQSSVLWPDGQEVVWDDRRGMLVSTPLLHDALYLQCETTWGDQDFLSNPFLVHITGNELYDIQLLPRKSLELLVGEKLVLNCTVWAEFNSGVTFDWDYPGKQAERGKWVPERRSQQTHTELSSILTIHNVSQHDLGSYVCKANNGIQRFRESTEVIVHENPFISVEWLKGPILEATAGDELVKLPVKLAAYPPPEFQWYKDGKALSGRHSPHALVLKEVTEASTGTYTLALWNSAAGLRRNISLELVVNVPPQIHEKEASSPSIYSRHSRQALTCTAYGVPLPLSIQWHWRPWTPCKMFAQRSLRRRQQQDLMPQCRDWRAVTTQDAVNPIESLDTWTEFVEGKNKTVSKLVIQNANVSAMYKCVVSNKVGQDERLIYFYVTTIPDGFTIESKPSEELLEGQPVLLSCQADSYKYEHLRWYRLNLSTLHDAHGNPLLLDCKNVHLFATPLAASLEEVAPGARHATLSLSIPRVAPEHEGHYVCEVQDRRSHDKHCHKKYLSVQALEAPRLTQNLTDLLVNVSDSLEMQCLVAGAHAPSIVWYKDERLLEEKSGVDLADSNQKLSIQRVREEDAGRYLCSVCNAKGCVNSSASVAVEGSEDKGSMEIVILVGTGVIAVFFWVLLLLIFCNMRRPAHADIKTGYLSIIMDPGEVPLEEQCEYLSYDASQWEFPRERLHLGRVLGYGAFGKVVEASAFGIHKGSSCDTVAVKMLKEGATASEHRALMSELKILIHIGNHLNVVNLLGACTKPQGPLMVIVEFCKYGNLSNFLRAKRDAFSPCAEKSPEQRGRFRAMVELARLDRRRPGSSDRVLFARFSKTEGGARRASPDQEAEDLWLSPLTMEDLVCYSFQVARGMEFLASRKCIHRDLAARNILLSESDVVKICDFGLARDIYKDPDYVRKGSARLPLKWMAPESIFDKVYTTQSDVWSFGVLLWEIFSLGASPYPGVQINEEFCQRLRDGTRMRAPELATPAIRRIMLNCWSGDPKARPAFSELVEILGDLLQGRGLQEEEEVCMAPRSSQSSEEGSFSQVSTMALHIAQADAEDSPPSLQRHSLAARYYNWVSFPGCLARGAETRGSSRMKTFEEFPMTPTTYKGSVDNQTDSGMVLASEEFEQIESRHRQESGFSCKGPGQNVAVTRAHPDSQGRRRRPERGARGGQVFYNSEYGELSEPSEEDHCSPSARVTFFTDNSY
Sequence of MUSK (human) (O15146 whole entry, looked up): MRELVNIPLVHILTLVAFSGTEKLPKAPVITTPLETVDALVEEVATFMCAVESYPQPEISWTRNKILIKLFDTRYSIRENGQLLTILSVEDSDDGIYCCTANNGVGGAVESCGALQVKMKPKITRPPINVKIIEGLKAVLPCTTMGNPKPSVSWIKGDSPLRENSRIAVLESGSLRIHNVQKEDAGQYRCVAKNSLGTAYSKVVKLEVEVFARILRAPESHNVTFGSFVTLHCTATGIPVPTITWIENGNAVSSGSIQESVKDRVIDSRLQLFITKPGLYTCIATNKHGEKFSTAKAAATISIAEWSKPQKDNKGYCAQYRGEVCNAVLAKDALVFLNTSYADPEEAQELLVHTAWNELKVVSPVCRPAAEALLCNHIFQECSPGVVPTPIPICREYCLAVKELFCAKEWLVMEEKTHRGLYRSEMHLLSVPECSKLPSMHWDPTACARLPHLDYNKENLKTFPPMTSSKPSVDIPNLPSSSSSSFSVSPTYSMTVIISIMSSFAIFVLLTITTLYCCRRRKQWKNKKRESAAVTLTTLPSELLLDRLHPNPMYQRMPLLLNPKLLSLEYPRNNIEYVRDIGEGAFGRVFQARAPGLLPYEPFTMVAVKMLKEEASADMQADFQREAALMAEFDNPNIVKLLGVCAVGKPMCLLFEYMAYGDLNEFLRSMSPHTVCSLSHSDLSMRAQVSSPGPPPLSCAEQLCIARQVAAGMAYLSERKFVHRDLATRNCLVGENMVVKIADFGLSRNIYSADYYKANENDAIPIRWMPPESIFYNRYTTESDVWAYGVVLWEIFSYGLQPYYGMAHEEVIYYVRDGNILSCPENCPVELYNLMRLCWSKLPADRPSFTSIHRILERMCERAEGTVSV
Sequence of ADCK4 (human) (Q96D53 whole entry, looked up): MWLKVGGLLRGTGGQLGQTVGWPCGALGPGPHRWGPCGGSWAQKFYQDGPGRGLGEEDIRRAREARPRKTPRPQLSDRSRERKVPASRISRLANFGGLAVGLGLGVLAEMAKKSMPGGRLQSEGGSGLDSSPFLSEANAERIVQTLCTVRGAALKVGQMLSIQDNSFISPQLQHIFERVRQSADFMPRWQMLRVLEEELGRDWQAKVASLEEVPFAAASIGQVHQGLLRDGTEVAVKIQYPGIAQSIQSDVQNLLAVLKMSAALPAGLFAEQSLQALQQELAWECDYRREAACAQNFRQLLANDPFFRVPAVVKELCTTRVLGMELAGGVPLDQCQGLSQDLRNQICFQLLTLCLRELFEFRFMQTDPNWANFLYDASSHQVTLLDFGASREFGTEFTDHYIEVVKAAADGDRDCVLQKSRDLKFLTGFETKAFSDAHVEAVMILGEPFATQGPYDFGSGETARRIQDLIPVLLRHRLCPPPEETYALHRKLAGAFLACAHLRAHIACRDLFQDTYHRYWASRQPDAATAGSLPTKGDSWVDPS
Sequence of MAPK13 (human) (O15264 whole entry, looked up): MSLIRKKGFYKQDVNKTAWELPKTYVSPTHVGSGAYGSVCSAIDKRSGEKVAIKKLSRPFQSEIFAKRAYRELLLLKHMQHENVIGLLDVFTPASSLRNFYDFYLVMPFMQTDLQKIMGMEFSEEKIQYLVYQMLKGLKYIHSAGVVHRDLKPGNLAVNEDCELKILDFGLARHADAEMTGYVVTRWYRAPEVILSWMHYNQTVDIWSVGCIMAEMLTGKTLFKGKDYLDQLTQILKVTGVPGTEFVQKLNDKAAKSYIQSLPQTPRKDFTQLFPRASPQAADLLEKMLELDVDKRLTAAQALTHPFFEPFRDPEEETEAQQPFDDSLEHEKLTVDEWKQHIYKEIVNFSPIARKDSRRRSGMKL
Sequence of MAP2K3 (human) (P46734 whole entry, looked up): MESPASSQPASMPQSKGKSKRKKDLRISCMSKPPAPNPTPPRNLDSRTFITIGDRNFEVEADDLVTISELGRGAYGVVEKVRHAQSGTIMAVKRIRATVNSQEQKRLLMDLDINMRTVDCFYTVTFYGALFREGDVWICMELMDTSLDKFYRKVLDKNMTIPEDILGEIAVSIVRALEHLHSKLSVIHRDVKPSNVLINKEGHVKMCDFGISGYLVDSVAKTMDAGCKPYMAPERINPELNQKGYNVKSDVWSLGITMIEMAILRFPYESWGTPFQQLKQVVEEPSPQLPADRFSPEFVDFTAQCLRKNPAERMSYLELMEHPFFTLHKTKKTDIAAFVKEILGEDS

Compound | kinase still bound, per cent of control [1] [%] | kinase still bound, per cent of control [2] [%] | kinase still bound, per cent of control [3] [%] | kinase still bound, per cent of control [4] [%] | kinase still bound, per cent of control [5] [%] | kinase still bound, per cent of control [6] [%] | kinase still bound, per cent of control [7] [%] | kinase still bound, per cent of control [9] [%] | kinase still bound, per cent of control [11] [%] | kinase still bound, per cent of control [12] [%] | kinase still bound, per cent of control [13] [%] | kinase still bound, per cent of control [14] [%] | kinase still bound, per cent of control [17] [%] | kinase still bound, per cent of control [18] [%] | kinase still bound, per cent of control [19] [%] | kinase still bound, per cent of control [20] [%] | kinase still bound, per cent of control [22] [%] | kinase still bound, per cent of control [24] [%] | kinase still bound, per cent of control [25] [%] | kinase still bound, per cent of control [26] [%] | other results
COc1cc(N2CCN(C)CC2)ccc1Nc1nc(N)c(C(=O)c2c(Cl)cccc2Cl)s1 | 90 | 100 | 17 | 68 | 63 | 100 | 61 | 93 | 75 | 85 | 100 | 69 | 86 | 87 | 82 | 14 | 81 | 99 | 100 | 61 | kinase still bound, per cent of control [8]: 85%; kinase still bound, per cent of control [10]: 100%; kinase still bound, per cent of control [15]: 91%; kinase still bound, per cent of control [16]: 84%; kinase still bound, per cent of control [21]: 100%; kinase still bound, per cent of control [23]: 100%; kinase still bound, per cent of control [27]: 5.3%; kinase still bound, per cent of control [28]: 79%; kinase still bound, per cent of control [29]: 75%; kinase still bound, per cent of control [30]: 90%; kinase still bound, per cent of control [31]: 100%; kinase still bound, per cent of control [32]: 70%; kinase still bound, per cent of control [33]: 79%; kinase still bound, per cent of control [34]: 100%; kinase still bound, per cent of control [35]: 43%; kinase still bound, per cent of control [36]: 100%; kinase still bound, per cent of control [37]: 96%; kinase still bound, per cent of control [38]: 100%
C[C@@H](Oc1cc(-n2cnc3ccc(CN4CCN(C)CC4)cc32)sc1C(N)=O)c1ccccc1C(F)(F)F | 100 | 100 | 15 | 80 | 100 | 100 | 40 | 100 | 76 | 74 | 94 | 91 | 78 | 24 | 97 | 72 | 58 | 100 | 100 | 29 | kinase still bound, per cent of control [10]: 100%; kinase still bound, per cent of control [15]: 89%; kinase still bound, per cent of control [16]: 93%; kinase still bound, per cent of control [21]: 100%; kinase still bound, per cent of control [23]: 100%; kinase still bound, per cent of control [27]: 100%; kinase still bound, per cent of control [39]: 92%; kinase still bound, per cent of control [28]: 100%; kinase still bound, per cent of control [29]: 41%; kinase still bound, per cent of control [30]: 100%; kinase still bound, per cent of control [31]: 92%; kinase still bound, per cent of control [32]: 12%; kinase still bound, per cent of control [33]: 52%; kinase still bound, per cent of control [34]: 63%; kinase still bound, per cent of control [35]: 43%; kinase still bound, per cent of control [36]: 97%; kinase still bound, per cent of control [37]: 11%; kinase still bound, per cent of control [38]: 100%
O=C(O)c1ccc(Nc2ncc3c(n2)-c2ccc(Cl)cc2C(c2c(F)cccc2F)=NC3)cc1 | 86 | 1.5 | 98 | 67 | 100 | 100 | 90 | 96 | 100 | 48 | 15 | 2 | 5.7 | 3 | 26 | 92 | 95 | 50 | 100 | 100 | kinase still bound, per cent of control [8]: 48%; kinase still bound, per cent of control [27]: 89%; kinase still bound, per cent of control [28]: 91%; kinase still bound, per cent of control [29]: 56%; kinase still bound, per cent of control [30]: 93%; kinase still bound, per cent of control [31]: 86%; kinase still bound, per cent of control [32]: 96%; kinase still bound, per cent of control [40]: 3.9%; kinase still bound, per cent of control [34]: 18%; kinase still bound, per cent of control [35]: 73%; kinase still bound, per cent of control [36]: 94%; kinase still bound, per cent of control [37]: 80%; kinase still bound, per cent of control [38]: 100%
